Legend:
[1] = target: recombinant human delta opioid receptor (Homo sapiens, UniProt P41143); assay: Delta-opioid receptor radioligand displacement ([3H]DADLE); assay type: binding
kappa opioid receptor = kappa opioid receptor (Homo sapiens, UniProt P41145); assay: Kappa-opioid receptor radioligand displacement ([3H]U69593); assay type: binding
TRPM8 ion channel = target: T1, TRPM8 ion channel (Homo sapiens, UniProt Q7Z2W7); assay: Effect on activity of TRPM8 ion channel (Fluo-4 AM calcium); assay type: cell-based; settings: TRPM8 expressing HEK293 cells; Icilin 100 nM; intracellular calcium; read-out: IC50, blocker of TRPM8 ion channel
T1 construct: expressed in transfected cells; host or cells: HEK293 cells
Experimental: Compound I was dissolved in DMSO to a concentration of 100 mM; then the stock solution was diluted with DMSO to prepare a test solution with the concentration of substance equal to 50 μM. TRPM8 expressing HEK293 cells were used in the experiment. At the day of the experiment, the cells were incubated with a 4 μM of a solution of fluorescent indicator Fluo-4 AM. The cells after the preincubation with Icilin (100 nM), the known agonist of TRPM8 ion channel, were incubated with the test compound. The activity of receptors was determined by the intracellular calcium concentration using fluorescence spectroscopy (Behrendt, H. J. et al. (2004), Br. J. Pharmacol., 141: 737-745. FINAL).

male balb/c mice [2] = assay: Motility of the gastrointestinal tract in vivo (activated carbon transit); settings: for The time of ejection of activated carbon: intact 73.8 ± 3.7
Experimental: The effect of Compound I on the motility of the GIT was studied by a standard procedure (Li Y. Y., Li Y. N., Ni J. B., Chen C. J., Lv S., Chai S. Y., Wu R. H., Yüce B., Storr M. Involvement of cannabinoid-1 and cannabinoid-2 receptors in septic ileus//Neurogastroenterol Motil. 2010. V. 22. P. 350-388). The study was carried out on male balb/c mice, the individual weight of which deviates from the mean value within the sex of no more than ±20%. The animals were given the intragastric administration of a solution of activated carbon (50 mg/ml, in 10 ml/kg) and the rate (in minutes) of the movement of the activated carbon on the intestine of animals was evaluated. Compounds I was administered once intragastrically 1 hour prior to administration of activated carbon. As the comparative preparations, hyoscin butyl bromide (Buscopan) at a dose of 3 mg/kg, trimebutine (Trimedat) at a dose of 33 mg/kg, mebeverine (Duspatalin) at a dose of 30 mg/kg were used. The obtained data were checked using the Grubb's test for the presence of the largest or smallest abnormal observation (ejection) in the sample. Values determined “to be eliminated” in this test were not used for further assay. For all data, descriptive statistics was used: a mean value (M) and standard error of the mean value (m) were counted up. The normality of distribution of the values obtained in the course of the experiment was checked with the aid of the Kolmogorov-Smirnov test. In the case of normal distribution, Student's t-test (t-test) was used to evaluate the inter-group distinctions. In the case of the distribution that is other than the normal one for the comparison of several groups, the Kruskall-Wallis test (with Dann's post hoc test) was used. Distinctions were determined at 5% at a level of confidence.

male balb/c mice [3] = assay: Open field test, functional state of the central nervous system of mice; assay type: in vivo; settings: for The number of acts of defecation within 15 minutes: control 0.2 ± 0.1; for The number of washes within 15 minutes (grooming): control 8.0 ± 1.5; for Number of standing up on hind legs in 15 minutes (vertical activity): control 67.1 ± 3.5; for Number of squares crossed within 15 minutes (horizontal activity): control 443.3 ± 15.6; for General physical activity for 15 minutes: control 518.4 ± 15.3
Experimental: For the final confirmation of the safety of Compound I at the oral administration, the study of the effect of Compound I on the functional state of the central nervous system of mice in the open field test was carried out. “Open field” test consists in the evaluation of motor and research activities, orientation reaction and emotional reactivity in the registration of spontaneous behaviour of animals. The study was carried out according to the standard technique (Buresh Y, Bureshova O., Joseph P. Houston. Methods and main experiments to study the brain and behavior (Moscow, 1991, pp. 119-122).
The study was carried out on male balb/c mice, the individual weight of which deviates from the mean value within the sex of no more than ±10%.
Compound I was administered once, intragastrically. The evaluation of the effect on the central nervous system was carried out 2 hours after the administration of Compound I in the study of the approximate research behaviour of mice in the “open field”. The experimental “open field” facility was a chamber of 100×100×60 cm in size, with a square floor and white walls. The floor of the chamber is divided into 16 squares, in each square there is the round orifice having 6 cm in diameter. The chamber is illuminated by the incandescent electric lamp having a power of 100 watts, located at a height of 1 m from the floor of the chamber. The animal was placed in one of the corners of the chamber and for 15 minutes the number of horizontal squares crossed by it (horizontal activity), getting up on its hind legs (vertical activity), washing (grooming), and defecation by the number of fecal balls were recorded. Then the total motor activity was calculated, the activity was calculated as the sum of the crossed horizontal squares, standing on the hind legs and washing.
The obtained data were checked using the Grubb's test for the presence of the largest or smallest abnormal observation (ejection) in the sample. Values determined “to be eliminated” in this test were not used for further assay. For all data, descriptive statistics was used: a mean value (M) and standard error of the mean value (m) were counted up. The normality of distribution of the values obtained in the course of the experiment was checked with the aid of the Kolmogorov-Smirnov test. In the case of normal distribution, Student's t-test (t-test) was used to evaluate the inter-group distinctions. In the case of the distribution that is other than the normal one the Kruskalll-Wallis test with Dann's post hoc test was used for the comparison of several groups. Distinctions were determined at 5% at a level of confidence.

[4] = 0.75 mg/kg intragastrically 2 hours prior
[5] = 1.5 mg/kg intragastrically 2 hours prior
[6] = 2.5 mg/kg intragastrically 2 hours prior
[7] = 5 mg/kg intragastrically 2 hours prior
[8] = 10 mg/kg intragastrically 2 hours prior
[9] = 20 mg/kg intragastrically 2 hours prior
[10] = 30 mg/kg intragastrically 2 hours prior

Chain of kappa opioid receptor (P41145 whole entry): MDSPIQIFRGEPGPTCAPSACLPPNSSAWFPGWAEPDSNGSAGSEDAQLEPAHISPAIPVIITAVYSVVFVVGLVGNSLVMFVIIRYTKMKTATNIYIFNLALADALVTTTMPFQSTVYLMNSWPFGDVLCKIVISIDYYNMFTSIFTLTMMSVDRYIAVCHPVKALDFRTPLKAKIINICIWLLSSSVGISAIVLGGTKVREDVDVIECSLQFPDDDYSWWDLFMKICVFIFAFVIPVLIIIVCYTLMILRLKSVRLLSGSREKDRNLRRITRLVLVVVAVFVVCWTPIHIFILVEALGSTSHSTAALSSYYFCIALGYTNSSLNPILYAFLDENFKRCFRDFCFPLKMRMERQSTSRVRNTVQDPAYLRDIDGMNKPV
Chain of recombinant human delta opioid receptor (P41143 whole entry): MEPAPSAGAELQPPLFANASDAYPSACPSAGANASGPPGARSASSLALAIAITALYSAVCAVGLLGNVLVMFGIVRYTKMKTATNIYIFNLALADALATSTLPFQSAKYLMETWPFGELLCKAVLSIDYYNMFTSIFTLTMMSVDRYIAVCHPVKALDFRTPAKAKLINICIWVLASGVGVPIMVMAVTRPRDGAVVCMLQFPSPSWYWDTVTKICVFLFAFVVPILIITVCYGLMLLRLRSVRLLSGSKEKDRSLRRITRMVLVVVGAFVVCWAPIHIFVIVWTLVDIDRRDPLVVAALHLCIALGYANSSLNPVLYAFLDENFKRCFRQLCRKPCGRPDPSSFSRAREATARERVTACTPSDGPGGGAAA
T1 sequence (Q7Z2W7 whole entry): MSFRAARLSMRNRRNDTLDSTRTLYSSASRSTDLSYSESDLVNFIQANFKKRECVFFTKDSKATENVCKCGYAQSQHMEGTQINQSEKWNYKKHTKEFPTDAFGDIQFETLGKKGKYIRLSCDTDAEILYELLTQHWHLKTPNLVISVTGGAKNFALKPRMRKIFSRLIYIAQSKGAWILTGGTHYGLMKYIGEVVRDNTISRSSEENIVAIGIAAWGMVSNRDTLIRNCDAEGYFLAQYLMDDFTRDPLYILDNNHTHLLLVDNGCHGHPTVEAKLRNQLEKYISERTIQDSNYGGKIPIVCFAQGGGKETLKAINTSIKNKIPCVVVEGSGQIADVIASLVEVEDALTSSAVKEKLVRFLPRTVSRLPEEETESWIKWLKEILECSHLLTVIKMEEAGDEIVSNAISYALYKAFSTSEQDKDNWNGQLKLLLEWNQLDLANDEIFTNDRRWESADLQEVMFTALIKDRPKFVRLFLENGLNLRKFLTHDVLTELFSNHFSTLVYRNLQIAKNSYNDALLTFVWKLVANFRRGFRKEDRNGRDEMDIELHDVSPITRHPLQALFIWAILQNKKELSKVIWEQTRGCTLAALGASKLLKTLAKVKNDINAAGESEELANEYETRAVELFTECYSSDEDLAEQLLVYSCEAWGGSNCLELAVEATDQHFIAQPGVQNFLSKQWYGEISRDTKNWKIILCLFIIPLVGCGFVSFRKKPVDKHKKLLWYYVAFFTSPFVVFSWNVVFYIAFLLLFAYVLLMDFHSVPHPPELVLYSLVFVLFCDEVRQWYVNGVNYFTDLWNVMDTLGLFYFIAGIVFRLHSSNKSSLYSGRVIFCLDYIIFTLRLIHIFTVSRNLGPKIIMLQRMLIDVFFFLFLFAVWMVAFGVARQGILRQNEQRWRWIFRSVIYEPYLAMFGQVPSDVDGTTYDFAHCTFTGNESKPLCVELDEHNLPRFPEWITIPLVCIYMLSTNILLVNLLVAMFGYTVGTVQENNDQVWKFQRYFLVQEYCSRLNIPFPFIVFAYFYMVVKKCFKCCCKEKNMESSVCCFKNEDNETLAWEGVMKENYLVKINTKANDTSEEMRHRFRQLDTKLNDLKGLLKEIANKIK

SMILES: O=C(Cc1ccc(O)cc1)N[C@@H](Cc1ccccc1)C(=O)NCCc1ccccc1 [Compound I, 2-phenylethylamide N-(p-hydroxyphenylacetyl)phenylalanine]
- IC50 [1]: 64 µM
- IC50 (kappa opioid receptor): 7.1 µM
- IC50 (TRPM8 ion channel): 62 µM
- The time of ejection of activated carbon (male balb/c mice [2]; 1.5 mg/kg once intragastrically 1 hour prior to activated carbon): 108.7 ± 9.28 min
- The time of ejection of activated carbon (male balb/c mice [2]; 3 mg/kg once intragastrically 1 hour prior to activated carbon): 130.4 ± 11.42 min
- The time of ejection of activated carbon (male balb/c mice [2]; 7.5 mg/kg once intragastrically 1 hour prior to activated carbon): 123.4 ± 11.43 min
- The time of ejection of activated carbon (male balb/c mice [2]; 15 mg/kg once intragastrically 1 hour prior to activated carbon): 147.6 ± 8.94 min
- Increase of the time of activated carbon evacuation (male balb/c mice [2]; 1.5-15 mg/kg intragastrically, versus intact): 1.5-2 times
- The number of acts of defecation within 15 minutes (male balb/c mice [3]; [4]): 0.2 ± 0.1
- The number of washes within 15 minutes (grooming) (male balb/c mice [3]; [4]): 7.2 ± 1.4
- Number of standing up on hind legs in 15 minutes (vertical activity) (male balb/c mice [3]; [4]): 69.9 ± 4.3
- Number of squares crossed within 15 minutes (horizontal activity) (male balb/c mice [3]; [4]): 468.5 ± 13.0
- General physical activity for 15 minutes (male balb/c mice [3]; [4]): 545.6 ± 16.5
- The number of acts of defecation within 15 minutes (male balb/c mice [3]; [5]): 1.6 ± 0.6
- The number of washes within 15 minutes (grooming) (male balb/c mice [3]; [5]): 8.5 ± 1.6
- Number of standing up on hind legs in 15 minutes (vertical activity) (male balb/c mice [3]; [5]): 63.0 ± 4.2
- Number of squares crossed within 15 minutes (horizontal activity) (male balb/c mice [3]; [5]): 414.2 ± 24.1
- General physical activity for 15 minutes (male balb/c mice [3]; [5]): 485.7 ± 24.8
- The number of acts of defecation within 15 minutes (male balb/c mice [3]; [6]): 0.0 ± 0.0
- The number of washes within 15 minutes (grooming) (male balb/c mice [3]; [6]): 8.6 ± 1.6
- Number of standing up on hind legs in 15 minutes (vertical activity) (male balb/c mice [3]; [6]): 72.8 ± 3.5
- Number of squares crossed within 15 minutes (horizontal activity) (male balb/c mice [3]; [6]): 459.5 ± 19.0
- General physical activity for 15 minutes (male balb/c mice [3]; [6]): 540.9 ± 18.0
- The number of acts of defecation within 15 minutes (male balb/c mice [3]; [7]): 1.5 ± 0.2
- The number of washes within 15 minutes (grooming) (male balb/c mice [3]; [7]): 2.3 ± 1.0
- Number of standing up on hind legs in 15 minutes (vertical activity) (male balb/c mice [3]; [7]): 71.7 ± 4.4
- Number of squares crossed within 15 minutes (horizontal activity) (male balb/c mice [3]; [7]): 480.6 ± 22.1
- General physical activity for 15 minutes (male balb/c mice [3]; [7]): 554.6 ± 23.9
- The number of acts of defecation within 15 minutes (male balb/c mice [3]; [8]): 0.0 ± 0.0
- The number of washes within 15 minutes (grooming) (male balb/c mice [3]; [8]): 6.8 ± 1.3
- Number of standing up on hind legs in 15 minutes (vertical activity) (male balb/c mice [3]; [8]): 66.1 ± 3.3
- Number of squares crossed within 15 minutes (horizontal activity) (male balb/c mice [3]; [8]): 449.2 ± 15.6
- General physical activity for 15 minutes (male balb/c mice [3]; [8]): 522.1 ± 16.5
- The number of acts of defecation within 15 minutes (male balb/c mice [3]; [9]): 0.0 ± 0.0
- The number of washes within 15 minutes (grooming) (male balb/c mice [3]; [9]): 6.2 ± 1.3
- Number of standing up on hind legs in 15 minutes (vertical activity) (male balb/c mice [3]; [9]): 64.9 ± 4.0
- Number of squares crossed within 15 minutes (horizontal activity) (male balb/c mice [3]; [9]): 479.4 ± 29.3
- General physical activity for 15 minutes (male balb/c mice [3]; [9]): 545.5 ± 30.4
- The number of acts of defecation within 15 minutes (male balb/c mice [3]; [10]): 0.0 ± 0.0
- The number of washes within 15 minutes (grooming) (male balb/c mice [3]; [10]): 5.9 ± 1.4
- Number of standing up on hind legs in 15 minutes (vertical activity) (male balb/c mice [3]; [10]): 69.0 ± 3.8
- Number of squares crossed within 15 minutes (horizontal activity) (male balb/c mice [3]; [10]): 448.4 ± 16.4
- General physical activity for 15 minutes (male balb/c mice [3]; [10]): 523.3 ± 16.6
- Toxic influence on approximate-research behaviour in the open field test (male balb/c mice [3]; intragastric administration, 0.75-30 mg/kg, no statistically significant differences to control): did not have the toxic influence
